The test system of data set [1] is MCF-7 breast cancer cells. As to the kind of experiment: MTT cell viability assay in MCF-7 cells. In kind it is cell-based. The settings on record: Homo sapiens, MCF7; for viability at 1 µM: MCF-7, 1 µM; for viability at 1 µM / viability at 10 µM / viability at 25 µM: read-out: Cell Viability (%) ± SD; for viability at 10 µM: MCF-7, 10 µM; for viability at 25 µM: MCF-7, 25 µM; for IC50: MCF-7, MTT, five concentrations (1.0, 5.0, 10.0, 25 and 50 µM).

Data set [2] in a line: MTT cell viability assay in normal MCF-10A cells. In kind it is cell-based. The settings on record: human, MCF-10A normal mammary epithelial cells, read-out: Cell Viability (%) ± SD. The text has this: MDA-MB-231 represents a specific subtype, known as the triple negative breast cancer (TNBC). […] We also included normal mammary epithelial MCF-10A cells in our experiments to confirm if the growth-inhibitory activities of the selected compounds are truly cancer cell-specific. […] Furthermore, none of these compounds did have any growth inhibitory activity against normal breast epithelial cell (MCF-10A). The IC50 values for these compounds against MDA-MB-231 cells (Fig. 2) are also included in Table 4 for comparison. Cell viability assay was performed as per standard protocols. After 72 h of cell incubation in the presence or absence of each compound, cell viability was evaluated by using MTT ((3-(4,5-dimethylthiazol-2-yl)-2,5-diphenyltetrazolium bromide)) (Himedia Pvt. Ltd, India). In brief, this is a homogeneous, colorimetric method for determining the number of viable cells in proliferation, cytotoxicity or chemosensitivity assays. MTT is bio reduced by cells into a formazan product that is […]. After 72 h of compound treatment, the medium was removed and 100 μL of MTT (0.5 mg ml^−1 in media) was added to the cells and kept in the dark for 3 h at 37 °C in the CO2 incubator and the formazan formed was dissolved in 100 μL DMSO (Dimethyl Sulfoxide). The absorbance of the formazan product at 595 nm was measured directly from 96-well assay plates without additional processing using a multimode plate reader (Bio-Rad) (iMark, India), as absorbance is directly proportional to the number of viable cells in culture. The percentage of viable cells in each group is determined with respect to the untreated control cells.
On the technique in general: Tetrazolium dyes change colour on reduction, which living cells bring about.

The target in another data set is T1, COX-2 enzyme (Homo sapiens, UniProt P35354).
T1 construct: purchased Bio Vision (BioVision), USA K547 / k547–100
T1 sequence (P35354 18-604): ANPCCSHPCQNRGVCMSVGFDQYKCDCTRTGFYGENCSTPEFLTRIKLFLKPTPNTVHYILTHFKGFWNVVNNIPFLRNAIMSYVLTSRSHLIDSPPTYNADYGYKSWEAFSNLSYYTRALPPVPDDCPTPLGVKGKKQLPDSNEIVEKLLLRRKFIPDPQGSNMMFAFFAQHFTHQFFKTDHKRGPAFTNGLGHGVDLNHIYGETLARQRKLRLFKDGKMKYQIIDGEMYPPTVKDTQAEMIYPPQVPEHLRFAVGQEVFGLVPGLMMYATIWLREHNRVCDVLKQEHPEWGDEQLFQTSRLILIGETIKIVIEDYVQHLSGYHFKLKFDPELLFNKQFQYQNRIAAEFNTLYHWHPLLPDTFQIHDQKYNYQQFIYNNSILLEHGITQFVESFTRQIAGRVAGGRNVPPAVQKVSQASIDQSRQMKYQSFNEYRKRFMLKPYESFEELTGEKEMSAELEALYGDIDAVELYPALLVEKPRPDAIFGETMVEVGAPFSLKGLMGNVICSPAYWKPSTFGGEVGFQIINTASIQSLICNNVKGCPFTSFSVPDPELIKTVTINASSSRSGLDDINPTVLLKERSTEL
As to the kind of experiment: Fluorescence-based COX-2 inhibitor screening assay. In kind it is biochemical. The protocol: In this method we detect the fluorescence compound PGG2 which can easily be analysed with an excitation wavelength of 540 nm and emission wavelength of 590 nm. The result of COX-2 inhibitory activity has been summarised in Table 5 at two different concentrations.
Assay for cyclooxygenases (COXs) inhibition for COX-2 activity was determined by a fluorescence-based method using a COX-2 inhibitor screening assay kit (Bio vision, catalog # k547–100, S. millipitas Blvd, USA) in a total volume of 100 μL according to the directions provided with the kit manufacturer. The inhibitory activities of the tested compounds were based on the fluorometric detection of Prostaglandin G2 the intermediate product generated by the COX enzyme. The enzymes were preincubated for 5 min at 25 °C with the test compounds prior to addition of arachidonic acid. Celecoxib was used as positive control. Fluorescence was measured (Ex/Em = 540/590 nm) kinetically at 25 °C for 5–10 minutes. Two time point was chosen in the linear range of the plot and obtained the corresponding values (RFU1 and RFU2) The COX-2 inhibitory activity was calculated according to the equation. % Relative inhibition = Slope of EC − Slope of S/Slope of EC × 100. Where EC is the enzyme control and S is sample screen and slope of all the sample is calculated by dividing the net ΔRFU(RFU2 − RFU1) values by the ΔT (T2 − T1).

`O=[N+]([O-])c1ccc2[nH]cc(-c3cc(C[C@@H]4O[C@H](CO)[C@@H](O)[C@H](O)[C@H]4O)no3)c2c1` [Compound 34, (2 R,3 S,4 R,5 R,6 S)-2-(hydroxymethyl)-6-((5-(5-nitro-1H-indol-3-yl)isoxazol-3-yl)methyl) tetrahydro-2H-pyran-3,4,5-triol]: in data set [1], the viability (commonly a read-out of living cells in per cent, often relative to untreated cells) at 1 µM turned out to be 41.3 ± 3.1%; the viability at 10 µM is 28.4 ± 0.9%; the viability at 25 µM was 23.1 ± 4.4%; the IC50 (commonly the point on the concentration scale where inhibition reaches its midpoint) amounted to 0.71 µM. Moreover, in data set [2], the viability at 72 h, 25 µM worked out at 87.6 ± 1.5%; the viability at 72 h, 50 µM is 80.1 ± 2.8%; the viability at 72 h, 100 µM is 84.2 ± 3%. On COX-2 enzyme, testing at 25 µM gave an inhibition of 4.9% and testing at 50 µM gave an inhibition of 59%.
Turning to `O=C(/C=C/c1c[nH]c2ccc(Cl)cc12)C[C@@H]1O[C@H](CO)[C@@H](O)[C@H](O)[C@@H]1O` [Compound 20, (E)-4-(5-chloro-1H-indol-3-yl)-1-((2S,3S,4R,5S,6R)-3,4,5-trihydroxy-6-(hydroxymethyl)tetrahydro-2H-pyran-2-yl)but-3-en-2-one], in data set [1], the viability at 1 µM amounted to 79.2 ± 2.6%, the viability at 10 µM was found to be 58.7 ± 2.4%, the viability at 25 µM came to 47.3 ± 7.6% and 21 µM corresponded to half-maximal inhibition (IC50). For the same compound, in data set [2], the viability at 72 h, 25 µM worked out at 85.8 ± 5.3%; the viability at 72 h, 50 µM was 78.8 ± 3%; the viability at 72 h, 100 µM was found to be 36.5 ± 3.4%. Further, on COX-2 enzyme, the inhibition (as a rule, the share of the control response that was lost under treatment) at 25 µM is 13.7% and the inhibition at 50 µM was determined as 39%.
Regarding `O=C(/C=C/c1c[nH]c2ccccc12)C[C@@H]1O[C@H](CO)[C@@H](O)[C@H](O)[C@H]1O` [Compound 9, (E)-4-(1H-indol-3-yl)-1-((2S,3R,4R,5S,6R)-3,4,5-trihydroxy-6-(hydroxymethyl)tetrahydro-2H-pyran-2-yl)but-3-en-2-one], in data set [1], the viability at 1 µM turned out to be 79.7 ± 1.18%, the viability at 10 µM was determined as 62.3 ± 3.6%, the viability at 25 µM came to 53.7 ± 4% and inhibition was half-maximal at 30 µM (IC50). For the same compound, in data set [2], the viability at 72 h, 25 µM worked out at 87.6 ± 1.5%; the viability at 72 h, 50 µM came out at 81.3 ± 2.9%; the viability at 72 h, 100 µM was found to be 84.2 ± 3%. At COX-2 enzyme, testing at 25 µM gave an inhibition of 25% and the inhibition at 50 µM was determined as 71%.
In the case of `OC[C@H]1O[C@@H](Cc2cc(-c3c[nH]c4ccccc34)on2)[C@H](O)[C@@H](O)[C@H]1O` [Compound 37, (2 S,3 R,4 R,5 R,6 R)-2-((5-(1H-indol-3-yl)isoxazol-3-yl)methyl)-6-(hydroxymethyl) tetrahydro-2H-pyran-3,4,5-triol], in data set [1], the viability at 1 µM was 30.8 ± 4.2%, the viability at 10 µM was found to be 21.2 ± 3.8% and the viability at 25 µM is 19.1 ± 3.5%. Moreover, in data set [2], the viability at 72 h, 25 µM came to 86.8 ± 2.8%; the viability at 72 h, 50 µM worked out at 83.2 ± 5.8%; the viability at 72 h, 100 µM was determined as 81 ± 1.5%. Also, at COX-2 enzyme, the inhibition at 50 µM was found to be 95%.
Consider `OC[C@H]1O[C@@H](CC2=NNC(c3c[nH]c4ccccc34)C2)[C@H](O)[C@@H](O)[C@H]1O` (stereo partly shown) [Compound 25, (2 S,3 R,4 R,5 R,6 R)-2-((5-(1H-indol-3-yl)-4,5-dihydro-1H-pyrazol-3-yl)methyl)-6-(hydroxy-methyl)tetrahydro-2H-pyran-3,4,5-triol], for which, in data set [1], the viability at 1 µM came out at 66 ± 4.7%, the viability at 10 µM was found to be 34 ± 2.5%, the viability at 25 µM is 19.9 ± 2.9% and the half-maximal inhibitory concentration (IC50) was found to be 4.67 µM. In addition, in data set [2], the viability at 72 h, 25 µM stood at 87.6 ± 2.2%; the viability at 72 h, 50 µM was found to be 84.6 ± 1.7%; the viability at 72 h, 100 µM came out at 82.4 ± 2.6%. At COX-2 enzyme, this compound came in with an inhibition at 25 µM of 6.7% and an inhibition at 50 µM of 27%.

Source of the values: article PMC7170901, “Design and efficient synthesis of pyrazoline and isoxazole bridged indole C-glycoside hybrids as potential anticancer agents” (Scientific Reports, 2020).
